Experiments:
TYK2 = TYK2 (Homo sapiens, UniProt P29597); test: JAK kinase activity inhibition, TR-FRET (TYK2); assay type: biochemical; conditions: TR-FRET kinase assay
Description: (§1) Experimental objective: The objective of this test is to test the inhibitory effect of the compound on JAK kinase activity.
(§2) Experimental method: the fluorescence resonance energy transfer (TR-FRET) method was used to test the inhibitory effect of the compound on JAK kinase activity, and the half inhibitory concentration IC50 of the compound on JAK kinase activity was obtained.
(§3) Kinase reaction was carried out in a white 384-well plate (PerkinElmer). 1-5 μL of different concentrations of the compound diluted with DMSO and ddH2O was added into each well, and 1-5 μL of the corresponding solvent was added to the positive control wells, followed by addition of 0.1-20 nM JAK kinase solution diluted with 1-5 μL of kinase buffer (HEPES 50-250 mM, MgCl2 5-20 mM, etc.) was added to each well. 1-5 μL of kinase buffer was added to the negative control well. 1-5 μL of substrate mixture containing peptide substrate and ATP was added. The plate was incubated at room temperature for 0.5-5 hours. […], EDTA and detection solution containing labeled antibody was added, and then the plate was incubated at room temperature for another 1-24 hours. The fluorescence signal value at about 620 nm and 665 nm of each well was measured by BioTek Synergy H1 plate reader, and the inhibition rate was calculated by the fluorescence signal value. According to the inhibition rate of different concentrations, the IC50 of the compound was obtained by curve fitting.
(§4) The percentage inhibition data of the wells treated with the compound was calculated with the positive control wells (DMSO control wells) and negative control wells (no kinase added) on the plate {% inhibition rate=100-[(test compound value-negative control value)]/(Positive control value-negative control value)×100}. IC50 value was calculated by using GraphPad prism to fit the data of different concentrations and corresponding percentage inhibition rates to a 4-parameter non-linear logic formula.

JAK1 = JAK1 (Homo sapiens, UniProt P23458); test: JAK kinase activity inhibition, TR-FRET (JAK1); assay type: biochemical; conditions: TR-FRET kinase assay
Chain of JAK1 (P23458 whole entry): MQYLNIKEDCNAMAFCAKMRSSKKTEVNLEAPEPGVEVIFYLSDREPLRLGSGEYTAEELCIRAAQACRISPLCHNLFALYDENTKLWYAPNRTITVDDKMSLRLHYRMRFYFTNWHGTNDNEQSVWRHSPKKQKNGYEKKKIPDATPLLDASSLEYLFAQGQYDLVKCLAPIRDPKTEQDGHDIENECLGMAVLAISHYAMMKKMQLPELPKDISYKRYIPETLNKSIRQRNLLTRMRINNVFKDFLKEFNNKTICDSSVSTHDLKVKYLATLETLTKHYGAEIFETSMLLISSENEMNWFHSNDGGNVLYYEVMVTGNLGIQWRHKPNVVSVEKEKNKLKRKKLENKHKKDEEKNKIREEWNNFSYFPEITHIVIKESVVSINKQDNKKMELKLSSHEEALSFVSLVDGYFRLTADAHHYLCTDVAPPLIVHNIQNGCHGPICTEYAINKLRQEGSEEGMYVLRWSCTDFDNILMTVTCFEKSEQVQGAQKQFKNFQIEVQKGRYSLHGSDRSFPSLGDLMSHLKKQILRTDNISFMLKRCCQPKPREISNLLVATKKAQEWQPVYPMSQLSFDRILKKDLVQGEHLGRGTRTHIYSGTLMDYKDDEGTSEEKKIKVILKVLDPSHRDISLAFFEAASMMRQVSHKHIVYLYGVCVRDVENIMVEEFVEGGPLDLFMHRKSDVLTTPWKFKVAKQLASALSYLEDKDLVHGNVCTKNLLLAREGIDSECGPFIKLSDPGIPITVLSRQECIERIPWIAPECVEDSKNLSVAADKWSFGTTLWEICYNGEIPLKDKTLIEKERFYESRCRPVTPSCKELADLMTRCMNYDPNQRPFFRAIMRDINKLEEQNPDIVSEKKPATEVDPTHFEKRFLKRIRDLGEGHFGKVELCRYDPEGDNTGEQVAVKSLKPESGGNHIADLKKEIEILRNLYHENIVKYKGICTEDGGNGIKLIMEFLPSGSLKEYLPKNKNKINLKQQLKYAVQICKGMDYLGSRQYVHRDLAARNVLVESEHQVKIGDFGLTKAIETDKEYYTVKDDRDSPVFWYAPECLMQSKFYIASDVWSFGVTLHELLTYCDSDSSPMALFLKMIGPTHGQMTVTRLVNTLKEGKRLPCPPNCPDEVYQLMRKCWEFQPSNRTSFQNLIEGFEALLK
Description: as §1, §2, §3, §4

Chain of TYK2 (P29597 whole entry): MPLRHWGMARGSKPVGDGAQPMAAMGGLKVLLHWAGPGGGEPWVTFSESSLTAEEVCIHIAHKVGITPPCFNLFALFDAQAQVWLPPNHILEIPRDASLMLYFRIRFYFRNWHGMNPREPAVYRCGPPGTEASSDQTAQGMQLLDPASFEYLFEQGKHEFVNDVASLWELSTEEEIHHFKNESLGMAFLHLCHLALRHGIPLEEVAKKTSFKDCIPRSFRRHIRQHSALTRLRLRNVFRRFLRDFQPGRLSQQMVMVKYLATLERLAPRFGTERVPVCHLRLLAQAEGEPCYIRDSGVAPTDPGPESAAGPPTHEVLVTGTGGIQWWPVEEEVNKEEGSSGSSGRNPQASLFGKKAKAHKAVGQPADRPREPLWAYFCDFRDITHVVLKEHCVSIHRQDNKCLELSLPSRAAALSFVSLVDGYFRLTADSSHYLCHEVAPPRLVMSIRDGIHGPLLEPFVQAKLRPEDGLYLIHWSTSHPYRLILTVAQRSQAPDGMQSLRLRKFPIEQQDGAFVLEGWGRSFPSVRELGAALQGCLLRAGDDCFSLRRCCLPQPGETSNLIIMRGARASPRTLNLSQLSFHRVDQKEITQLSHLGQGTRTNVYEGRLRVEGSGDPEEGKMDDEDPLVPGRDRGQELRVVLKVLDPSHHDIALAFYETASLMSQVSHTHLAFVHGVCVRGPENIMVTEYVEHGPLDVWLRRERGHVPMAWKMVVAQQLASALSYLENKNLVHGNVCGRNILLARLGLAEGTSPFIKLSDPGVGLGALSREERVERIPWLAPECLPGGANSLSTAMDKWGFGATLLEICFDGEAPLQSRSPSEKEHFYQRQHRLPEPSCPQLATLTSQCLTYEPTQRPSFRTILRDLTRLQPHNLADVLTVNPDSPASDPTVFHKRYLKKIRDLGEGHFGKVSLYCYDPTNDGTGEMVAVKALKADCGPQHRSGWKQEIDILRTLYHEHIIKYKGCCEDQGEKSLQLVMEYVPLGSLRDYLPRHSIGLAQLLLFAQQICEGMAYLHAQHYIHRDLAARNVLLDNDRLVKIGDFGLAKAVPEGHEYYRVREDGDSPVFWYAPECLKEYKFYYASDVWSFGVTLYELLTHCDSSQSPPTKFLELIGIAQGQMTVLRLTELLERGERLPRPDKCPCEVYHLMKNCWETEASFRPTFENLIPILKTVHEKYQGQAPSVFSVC

Structure (SMILES)	IC50 (TYK2) [nM]	IC50 (JAK1) [nM]
Cc1cc(Nc2nc(N[C@@H]3C[C@H]4CC[C@@H](C3)N4CCC#N)nc3c(C)cccc23)n[nH]1 [Embodiment 176, 3-((3-exo)-3-((8-methyl-4-((5-methyl-1H-pyrazol-3-yl)amino)quinazolin-2-yl)amino)-8-azabicyclo[3.2.1]oct-8-yl)propionitrile]	2.36	4.18
Cc1cc(Nc2nc(N[C@@H]3C[C@H]4CC[C@@H](C3)N4CCC#N)nc3cc(-n4ccnc4)ccc23)n[nH]1 [Embodiment 203, 3-((3-exo)-3-((7-(1H-imidazol-1-yl)-4-((5-methyl-1H-pyrazol-3-yl)amino)quinazolin-2-yl)amino)-8-azabicyclo[3.2.1]oct-8-yl)propionitrile]	0.19	0.23
Cc1cc(Nc2nc(N[C@@H]3C[C@H]4CC[C@@H](C3)N4C(=O)c3ccncc3)nc3ccccc23)n[nH]1 [Embodiment 228, ((3-exo)-3-((4-((5-methyl-1H-pyrazol-3-yl)amino)quinazolin-2-yl)amino)-8-azabicyclo[3.2.1]oct-8-yl)(pyridin-4-yl)methanone]	9.99	2.63
Cc1cnc(Nc2nc(N[C@@H]3C[C@H]4CC[C@@H](C3)N4S(=O)(=O)N3CC(C#N)C3)nc3ccccc23)s1 [Embodiment 221, 1-(((3-exo)-3-((4-((5-methylthioazole-2-yl)amino)quinazolin-2-yl)amino)-8-azabicyclo[3.2.1]oct-8-yl)sulfonyl)azetindin-3-formonitrile]	1.26	0.79
Cc1cc(Nc2nc(N[C@@H]3C[C@H]4CC[C@@H](C3)N4S(=O)(=O)c3ccccn3)nc3sccc23)n[nH]1 [Embodiment 266, N4-(5-methyl-1H-pyrazol-3-yl)-N2-((3-exo)-8-(pyridin-2-ylsulfonyl)-8-azabicyclo[3.2.1]oct-3-yl)thieno[2,3-d]pyrimidin-2,4-diamine]	10.2	10.5
Cc1cc(Nc2nc(N[C@@H]3C[C@H]4CC[C@@H](C3)N4CCC#N)nc3cccc(Cl)c23)n[nH]1 [Embodiment 175, 3-((3-exo)-3-((5-chloro-4-((5-methyl-1H-pyrazol-3-yl)amino)quinazolin-2-yl)amino)-8-azabicyclo[3.2.1]oct-8-yl)propionitrile]	42.8	> 100
Cc1cc(Nc2nc(N[C@@H]3C[C@H]4CC[C@@H](C3)N4CCC#N)c3cccnc3n2)n[nH]1 [Embodiment 90, 3-((3-exo)-3-((2-((5-methyl-1H-pyrazol-3-yl)amino)pyrido[2,3-d]pyrimidin-4-yl)amino)-8-azabicyclo[3.2.1]oct-8-yl)propionitrile]	21.6	7.23
Cc1cc(Nc2nc(N[C@@H]3C[C@H]4CC[C@@H](C3)N4C(=O)CN(C)C)nc3ccccc23)n[nH]1 [Embodiment 225, 2-(dimethylamine)-1-((3-exo)-3-((4-((5-methyl-1H-pyrazol-3-yl)amino)quinazolin-2-yl)amino)-8-azabicyclo[3.2.1]oct-8-yl)ethane-1-one]	0.94	9.16
Cc1cc(Nc2nc(N[C@@H]3C[C@H]4CC[C@@H](C3)N4CCC#N)nc3cc(-c4ccccc4)ccc23)n[nH]1 [Embodiment 184, 3-((3-exo)-3-((4-((5-methyl-1H-pyrazol-3-yl)amino)-7-phenylquinazolin-2-yl)amino)-8-azabicyclo[3.2.1]oct-8-yl)propionitrile]	0.48	0.14
Cc1cc(Nc2nc(N[C@@H]3C[C@H]4CC[C@@H](C3)N4C(=O)c3ccccn3)nc3ccccc23)n[nH]1 [Embodiment 226, ((3-exo)-3-((4-((5-methyl-1H-pyrazol-3-yl)amino)quinazolin-2-yl)amino)-8-azabicyclo[3.2.1]oct-8-yl)(pyridin-2-yl)methanone]	0.3	13.1
Cc1cc(Nc2nc(N[C@@H]3C[C@H]4CC[C@@H](C3)N4CCC#N)c3ccccc3n2)n[nH]1 [Embodiment 87, 3-((3-exo)-3-((2-((5-methyl-1H-pyrazol-3-yl)amino)quinazolin-4-yl)amino)-8-azabicyclo[3.2.1]oct-8-yl)propionitrile]	> 100	35.1
Cc1cc(Nc2nc(N[C@@H]3C[C@H]4CC[C@@H](C3)N4CCC#N)nc3cc(-c4cnn(C5CC5)c4)ccc23)n[nH]1 [Embodiment 185, 3-((3-exo)-3-((7-(1-cyclopropyl-1H-pyrazol-4-yl)-4-((5-methyl-1H-pyrazol-3-yl)amino)quinazolin-2-yl)amino)-8-azabicyclo[3.2.1]oct-8-yl)propionitrile]	0.6	0.29
Cc1cc(Nc2nc(N[C@@H]3C[C@H]4CC[C@@H](C3)N4C(=O)C(F)F)nc3ccccc23)n[nH]1 [Embodiment 231, 2,2-difluoro-1-((3-exo)-3-((4-((5-methyl-1H-pyrazol-3-yl)amino)quinazolin-2-yl)amino)-8-azabicyclo[3.2.1]oct-8-yl)ethane-1-one]	3.78	11.3
N#CCCN1[C@@H]2CC[C@H]1C[C@H](Nc1nc(Nc3cc(CO)[nH]n3)cc3ncccc13)C2 [Embodiment 19, 3-((3-exo)-3-((7-((5-(hydroxymethyl)-1H-pyrazol-3-yl)amino)-1,6-diazanaphthalen-5-yl)amino)-8-azabicyclo[3.2.1]oct-8-yl)propionitrile]	40.7	2.23
Cc1cc(Nc2nc(N[C@@H]3C[C@H]4CCC[C@@H](C3)N4S(=O)(=O)c3nccn3C)nc3sccc23)n[nH]1 [Embodiment 269]	3.08	3.22
Cc1cc(Nc2nc(N[C@@H]3C[C@H]4CC[C@@H](C3)N4CCF)nc3ccccc23)n[nH]1 [Embodiment 234]	7.11	112
Cc1cc(Nc2nc(NC3CCN(S(=O)(=O)N4CC(C#N)C4)CC3)nc3sccc23)n[nH]1 [Embodiment 302, 1-((4-((4-((5-methyl-1H-pyrazol-3-yl)amino)thieno[2,3-d]pyrimidin-2-yl)amino)piperidin-1-yl)sulfonyl)azetindin-3-formonitrile]	0.34	1.89
N#CCCN1[C@@H]2CC[C@H]1C[C@H](Nc1nc(Nc3ncc(C(N)=O)s3)cc3ncccc13)C2 [Embodiment 35, 2-((5-(((3-exo)-8-(2-cyanoethyl)-8-azabicyclo[3.2.1]oct-3-yl)amino)-1,6-diazanaphthalen-7-yl)amino)thiazol-5-formamide]	22.2	5.6
N#CCCN1[C@@H]2CC[C@H]1C[C@H](Nc1nc(Nc3cc[nH]n3)cc3ncccc13)C2 [Embodiment 6, 3-((3-exo)-3-((7-((1H-pyrazol-3-yl)amino)-1,6-diazanaphthalen-5-yl)amino)-8-azabicyclo[3.2.1]oct-8-yl)propionitrile]	10.7	4.03
COc1ccc(-c2ccc3c(Nc4cc(C)[nH]n4)nc(N[C@@H]4C[C@H]5CC[C@@H](C4)N5CCC#N)nc3c2)cn1 [Embodiment 183, 3-((3-exo)-3-((7-(6-methoxylpyridin-3-yl)-4-((5-methyl-1H-pyrazol-3-yl)amino)quinazolin-2-yl)amino)-8-azabicyclo[3.2.1]oct-8-yl)propionitrile]	0.1	0.18
O=C(CN1CCCC1)N1[C@@H]2CCC[C@H]1C[C@H](Nc1nc(Nc3ncc(CO)s3)cc3ncccc13)C2 [Embodiment 164, 1-((3-exo)-3-((7-((5-(hydroxymethyl)thiazol-2-yl)amino)-1,6-diazanaphthalen-5-yl)amino)-9-azabicyclo[3.3.1]non-9-yl)-2-(pyrrolidin-1-yl)ethane-1-one]	16.6	0.85
Cc1cc(Nc2nc(NC3CCN(S(=O)(=O)N4CC(C#N)C4)CC3)nc3ccccc23)n[nH]1 [Embodiment 311, 1-((4-((4-((5-methyl-1H-pyrazol-3-yl)amino)quinazolin-2-yl)amino)piperidin-1-yl)sulfonyl)azetindin-3-formonitrile]	1.44	7.5
Cn1cnc(Nc2cc3ncccc3c(N[C@@H]3C[C@H]4CC[C@@H](C3)N4CCC#N)n2)c1 [Embodiment 25, 3-((3-exo)-3-((7-((1-methyl-1H-imidazol-4-yl)amino)-1,6-diazanaphthalen-5-yl)amino)-8-azabicyclo[3.2.1]oct-8-yl)propionitrile]	4.57	1.63
Cc1cc(Nc2nc(N[C@@H]3C[C@H]4CC[C@@H](C3)N4S(=O)(=O)c3cccnc3)nc3ccccc23)n[nH]1 [Embodiment 232]	2	7.2
Cc1cc(Nc2nc(N[C@@H]3C[C@@H]4CN(CCC#N)C[C@@H]4C3)nc3ccccc23)n[nH]1 [Embodiment 300, 3-(cis-5-((4-((5-methyl-1H-pyrazol-3-yl)amino)quinazolin-2-yl)amino)hexahydrocyclopentadieno[c]pyrrole-2(1H)-yl)propionitrile]	14.7	5.11
COc1cncc(-c2ccc3c(Nc4cc(C)[nH]n4)nc(N[C@@H]4C[C@H]5CC[C@@H](C4)N5CCC#N)nc3c2)c1 [Embodiment 182]	0.25	0.37
